Entries after “also recorded” stand apart in the source; their conditions may differ.
Legend:
Gastric MRI-H254 = experiment: sc xenograft, gastric tumour, mouse; type: in vivo; settings: for Activity (% T/C.): xenograft, mouse
Procedure: Different model systems were evaluated to provide the basis for further clinical work. Selective antitumour activities were seen against two histologically different solid tumours: human gastric and prostate carcinomas. Potent in vitro activity to primary gastric tumour specimens or Hs746T gastric tumour cells is evident with IC30 values of 146 and 450 pM, respectively. […] activities were evaluated in nude rodents using sc implanted tumour fragments or hollow fibres (HF) containing tumour cells.
Follow-up studies necessitated using rats for iv infusions. With this variation, a 24 hr iv infusion schedule produced similar activities against HF gastric (20%) and HF prostate (31%) tumour cells. Cytotoxicity was also found using a 5 day iv infusion schedule against HF prostate tumour cells (33%).

FLT-1 (VEGF-R1) = experiment: cDNA expression array, PCR, Western in MOLT-4 cells; type: cell-based, human; settings: for quantitative change in FLT-1 expression: MOLT-4, 1 h treatment
Procedure: (§1) The early changes in gene expression induced by aplidine in MOLT-4 cells were evaluated by using cDNA expression arrays (Atlas Human Cancer, Clontech). MOLT-4 cells were treated for 1 hour with concentrations of aplidine which inhibit the growth by 50% and total RNA was isolated at 0, 1, 6 and 24 hours after drug wash out. Filters were hybridised with equal amount of 32P labelled cDNA. Analysis of the results was carried out using ATLAS IMAGE 1.0 software. Changes in gene expression greater than 2 fold were taken as significant changes in RNA expression and subsequently confirmed by PCR.
as §1, with “In the present study we have evaluated the early” for “The early”, “cells” for “cells were evaluated”, “of aplidien” for “of aplidine”, “isolated t” for “isolated at”, “equal amounts” for “equal amount”, “PCR. […] Whether the down-regulation of flt-1 is involved in the cytotoxic and antitumour effect of aplidine is under investigation at the moment.” for “PCR.”
(§2) The human leukaemia cell line MOLT-4 was used for these experiments MOLT-4 cells were treated for 1 hour with 20 nM of aplidine. Total RNA was extracted at the end of treatment and 6 and 24 hours after recovery in drug-free medium.
(§3) 5 μg of total RNA were retrotanscribed to cDNA in the presence of ^32P dATP. Equal amounts of radioactive probes were hybridised to Atlas Human Cancer Microarrays (Clontech). After washing, filter were exposed and the results analysed using the Atlas Image software. Only a gene expression difference greater than 2 fold between treated and untreated cells were taken into account. RT-PCR and northern analysis have been performed to confirm the changes in gene expression found with the microarrays.

B-RAF = experiment: cDNA expression array in MOLT-4 cells; type: cell-based, human; settings: for quantitative change in B-RAF expression: MOLT-4, 1 h treatment
Procedure: as §1
as §1, with “In the present study we have evaluated the early” for “The early”, “cells” for “cells were evaluated”, “of aplidien” for “of aplidine”, “isolated t” for “isolated at”, “equal amounts” for “equal amount”, “PCR. […] Whether the down-regulation of flt-1 is involved in the cytotoxic and antitumour effect of aplidine is under investigation at the moment.” for “PCR.”
as §2, §3

DNA-PK = experiment: cDNA expression array in MOLT-4 cells; type: cell-based, human; settings: MOLT-4, 1 h treatment
Procedure: as §1
as §1, with “In the present study we have evaluated the early” for “The early”, “cells” for “cells were evaluated”, “of aplidien” for “of aplidine”, “isolated t” for “isolated at”, “equal amounts” for “equal amount”, “PCR. […] Whether the down-regulation of flt-1 is involved in the cytotoxic and antitumour effect of aplidine is under investigation at the moment.” for “PCR.”
as §2, §3

FMS = experiment: cDNA expression array in MOLT-4 cells; type: cell-based, human; settings: for quantitative change in FMS expression: MOLT-4, 1 h treatment
Procedure: as §1
as §1, with “In the present study we have evaluated the early” for “The early”, “cells” for “cells were evaluated”, “of aplidien” for “of aplidine”, “isolated t” for “isolated at”, “equal amounts” for “equal amount”, “PCR. […] Whether the down-regulation of flt-1 is involved in the cytotoxic and antitumour effect of aplidine is under investigation at the moment.” for “PCR.”
as §2, §3

PLK-1 = experiment: cDNA expression array in MOLT-4 cells; type: cell-based, human; settings: MOLT-4, 1 h treatment
Procedure: as §1
as §1, with “In the present study we have evaluated the early” for “The early”, “cells” for “cells were evaluated”, “of aplidien” for “of aplidine”, “isolated t” for “isolated at”, “equal amounts” for “equal amount”, “PCR. […] Whether the down-regulation of flt-1 is involved in the cytotoxic and antitumour effect of aplidine is under investigation at the moment.” for “PCR.”
as §2, §3

[1] = test system: brain cells (neurons and astrocytes); experiment: fluorescent viability stain with immunocytochemistry; type: cell-based; settings: ethidium homodimer and calcein AM
Text: (§4) The motor neuron sensitivity may help to explain the type II muscle atrophy observed (as predicted) in a small group of patients where the AUC concentration of the drug is elevated due to diminished excretion.

[2] = test system: motor (choline acetyl transferatse positive) neurons in the spinal cord; experiment: as above; type: cell-based; settings: ethidium homodimer and calcein AM
Text: as §4

[3] = test system: substance P positive sensory neurones; experiment: as above; type: cell-based; settings: ethidium homodimer and calcein AM
Text: as §4

[4] = Phase I, 1 h weekly infusion x3 q4wk: toxicity and pharmacokinetics; type: in vivo, human; set-up: CL: unit not given here
Text: Adult patients with advanced disease, PS<3, and appropriate organ function are considered eligible; patients receive aplidine wk×3/q^4 wks. 24 solid tumour patients have been entered: median (m) age 55 y, m ECOG=1, 15/24 patients treated with =>2 treatment cycles. Seven dose levels (DL) from 133 mcg/m^2/wk to 2700 mcg/m^2/wk have been assessed: 102 infusions are evaluable for toxicity (tox). […] At 2700 mcg/m^2/wk (4 pts), 1 had G3 hiperbilirrubinemia that has been considered to be dose limiting and therefore 2700 mcg/m^2/wk DL is being expanded. […] Plasma levels >1 ng/ml 24 hours after infusion are reachable form 1800 mcg/m^2/wk. […] Aplidine appears to be clinically feasible at pharmacologically appropriate dose levels.
Aplidine was administered as a 1 hour weekly×3 every four weeks

[5] = MOLT-4, 6 hours after recovery in drug-free medium
[6] = 3-compartment model, preliminary

aplidine
Optimal activities, xenografted gastric tumours (Gastric MRI-H254; ip administration, range over regimens): 17-20% | Activity (% T/C.) (Gastric MRI-H254; q4dx3.ip, 1.25 mg/kg): 18% T/C | Activity (% T/C.) (Gastric MRI-H254; qd9.ip, 1.05 mg/kg): 17% T/C | Activity (% T/C.) (Gastric MRI-H254; qd9.ip, 2.1 mg/kg): 19% T/C | expression of VEGF-RI/flt-1 gene, in words (FLT-1 (VEGF-R1); MOLT-4, 20 nM 1 h, at the end of treatment): decreased | levels of flt-1, in words (FLT-1 (VEGF-R1); MOLT-4, 20 nM 1 h, by 6 and 24 hours): further decreased | quantitative change in FLT-1 expression (FLT-1 (VEGF-R1); 1 Hour): −1.5 fold | quantitative change in FLT-1 expression (FLT-1 (VEGF-R1); 6 Hours): −5.0 fold | quantitative change in FLT-1 expression (FLT-1 (VEGF-R1); 24 Hours): −3.4 fold | expression of VEGF-R1 (flt-1), in words (FLT-1 (VEGF-R1); MOLT-4, RNA level by PCR, protein level by Western blotting): downregulated; also recorded: inhibits expression; also recorded: marked time-dependent reduction; also recorded: decrease in flt-1 mRNA | quantitative change in B-RAF expression (B-RAF; 6 Hours): +2.0 fold | quantitative change in B-RAF expression (B-RAF; 24 Hours): +2.6 fold | levels of B-RAF, in words (B-RAF; [5]): increase | quantitative change in DNA-PK expression (DNA-PK; 6 Hours): +3.0 fold | quantitative change in DNA-PK expression (DNA-PK; 24 Hours): +3.8 fold | quantitative change in FMS expression (FMS; 6 Hours): +2.7 fold | quantitative change in FMS expression (FMS; 24 Hours): +2.1 fold | levels of Fms, in words (FMS; [5]): increase | quantitative change in PLK-1 expression (PLK-1; 6 Hours): +3.0 fold | quantitative change in PLK-1 expression (PLK-1; 24 Hours): +4.4 fold | toxic concentration [1]: approximately 1 μM | toxic concentration [2]: approximately 1 μM | toxicity at approximately 1 μM [3]: but not substance P positive sensory neurones | initial phase median half-life [4, 6]: 2.4 min | intermediate phase median half-life [4, 6]: 1.4 h | terminal phase median half-life [4, 6]: 20.7 h | Hypertension G3 (worst toxicity per patient) ([4]; 133 mcg/m^2/wk x3, 3 patients): (1) | Transaminitis G2 (worst toxicity per patient) ([4]; 133 mcg/m^2/wk x3, 3 patients): 1 | Alk. Phos. G3 (worst toxicity per patient) ([4]; 266 mcg/m^2/wk x3, 3 patients): (1) | Injection site reaction G2 (worst toxicity per patient) ([4]; 266 mcg/m^2/wk x3, 3 patients): 1 | Asthenia G2 (worst toxicity per patient) ([4]; 532 mcg/m^2/wk x3, 3 patients): 1 | Transaminitis G3 (worst toxicity per patient) ([4]; 532 mcg/m^2/wk x3, 3 patients): (1) | Asthenia G2 (worst toxicity per patient) ([4]; 800 mcg/m^2/wk x3, 3 patients): 1(1) | Asthenia G3 (worst toxicity per patient) ([4]; 800 mcg/m^2/wk x3, 3 patients): 1(1) | CPK elevation G1 (worst toxicity per patient) ([4]; 800 mcg/m^2/wk x3, 3 patients): 1 | Hypertension G1 (worst toxicity per patient) ([4]; 800 mcg/m^2/wk x3, 3 patients): 1 | Injection site reaction G2 (worst toxicity per patient) ([4]; 800 mcg/m^2/wk x3, 3 patients): 1 | Nausea/vomiting G2 (worst toxicity per patient) ([4]; 800 mcg/m^2/wk x3, 3 patients): 3 | Transaminitis G2 (worst toxicity per patient) ([4]; 800 mcg/m^2/wk x3, 3 patients): 1 | Asthenia G2 (worst toxicity per patient) ([4]; 1200 mcg/m^2/wk x3, 4 patients): 3 | Injection site reaction G2 (worst toxicity per patient) ([4]; 1200 mcg/m^2/wk x3, 4 patients): 1 | Myalgia G3 (worst toxicity per patient) ([4]; 1200 mcg/m^2/wk x3, 4 patients): (1) | Alk. Phos. G2 (worst toxicity per patient) ([4]; 1800 mcg/m^2/wk x3, 4 patients): 1 | Asthenia G2 (worst toxicity per patient) ([4]; 1800 mcg/m^2/wk x3, 4 patients): 2 | Injection site reaction G2 (worst toxicity per patient) ([4]; 1800 mcg/m^2/wk x3, 4 patients): 1 | Nausea/vomiting G2 (worst toxicity per patient) ([4]; 1800 mcg/m^2/wk x3, 4 patients): 3 | Transaminitis G2 (worst toxicity per patient) ([4]; 1800 mcg/m^2/wk x3, 4 patients): 1 | G3 hiperbilirrubinemia (dose limiting) ([4]; 2700 mcg/m^2/wk (4 pts)): 1 | Asthenia G2 (worst toxicity per patient) ([4]; 2700 mcg/m^2/wk x3, 8 patients): 1(1) | Asthenia G3 (worst toxicity per patient) ([4]; 2700 mcg/m^2/wk x3, 8 patients): 1(1) | Injection site reaction G2 (worst toxicity per patient) ([4]; 2700 mcg/m^2/wk x3, 8 patients): 3 | Nausea/vomiting G2 (worst toxicity per patient) ([4]; 2700 mcg/m^2/wk x3, 8 patients): 2 | Transaminitis G2 (worst toxicity per patient) ([4]; 2700 mcg/m^2/wk x3, 8 patients): 1 | Bilirrubin G3 (worst toxicity per patient) ([4]; 2700 mcg/m^2/wk x3, 8 patients, footnote DLT): 1(1)^(2) | CPK elevation G1 (worst toxicity per patient) ([4]; 3600 mcg/m^2/wk x3, 2 patients): 1 | clinically feasible dose ([4]; 1 hour infusion weekly with one week rest): ≤ 3600 mcg/m^2 every week | haematological tox ([4]; Example 13, 102 infusions): No haematological tox | CL ([4]; Example 13, median): 0.60 | m Vss ([4]; Example 13, median): 308 L/m^2 | m elimination half life ([4]; Example 13, median): 14.2 h | Bone marrow toxicity ([4]; Example 17): has not been reported | coefficient of variation of CL ([4]; Example 17, interpatient): 33% | Vss ([4]; Example 17, median (quartiles)): 345 (220-398) L/m^2 | t ½ ([4]; Example 17, median (quartiles)): 15.8 (13.3-19.5) h | plasma CL ([4]; Example 17, median, quartiles 288-407): 329 mL/min/m^2 | dose from which potentially therapeutic plasma levels are achievable ([4]; in vivo): ≥ 1200 μg/m^2 | Plasma levels 24 hours after infusion ([4]; reachable from 1800 mcg/m^2/wk): > 1 ng/mL

From patent US20090298752A1, “APLIDINE TREATMENT OF CANCERS” (PHARMA MAR, S.A., priority 1999, published 2009)
